Results published in patent publication EP2576536B1, “HAEMATOPOIETIC-PROSTAGLANDIN D2 SYNTHASE INHIBITORS” (priority 2010, dated 2011).
Where “and” joins values, the source holds several entries; their conditions need not be identical. Equal entries are not always repeated. Where two headings read alike, the source gives them in different places.

Columns and labels:
[1] = test system: mouse primary bone marrow-derived macrophages (BMM); test: LPS-inducible PGE2, 6-keto PGF1α and TXB2 production from BMM (EIA), specificity; type: cell-based; settings: 24 h
Method: The human megakaryocytic cell line MEG-01S was obtained from the American Type Culture Collection. MEG-01S were maintained in the same media as for BMM, supplemented with 1 mM Sodium Pyruvate (Invitrogen).
BMM were seeded overnight at 2 x 10^5 cells/ml in 24 well plates before treatment with compound at either 10 µM or 0.1 - 100 µM for 24 h in the presence or absence of lipopolysaccharide (LPS) from Salmonella Minnesota (Sigma-Aldrich) at a final concentration of 10 ng/ml. MEG-01S were seeded at 2 x 10^5 cells/ml and stimulated with PMA (Phorbol 12-myristate 13-acetate) (Sigma-Aldrich) at a final concentration of 0.1 µM for 16 h.

BMM = BMM cell viability by MTT assay; type: cell-based, mouse; settings: at 10 µM or 100 µM, LPS, 24 h (Figure 1B)
Method: (§1) All bone marrow-derived macrophages (BMM) were obtained by culturing bone marrow cells from the femurs of 6 to 8 week old C57BL/6 male mice in RPMI 1640 medium (Invitrogen Life Technologies, Carlsbad, CA, USA) supplemented with 10 % Fetal calf serum (Invitrogen) 20 U/ml penicillin and 20 µg/ml streptomycin (Invitrogen), 2 mM L-glutamine (Glutamax-1, Invitrogen) in the presence of 10^4 U/ml (100 ng/mL) recombinant human CSF-1 (a gift from Chiron, Emeryville, CA) on bacteriological plastic plates for 7 days. The human megakaryocytic cell line MEG-01S was obtained from the American Type Culture Collection. MEG-01S were maintained in the same media as for BMM, supplemented with 1 mM Sodium Pyruvate (Invitrogen).
(§2) Known inhibitors 1 and 2, along with compound 3, were used to treat BMM at three doses (10, 30, 100 µM) in the presence of LPS for 24 h and cell viability was measured by MTT assay. BMM were seeded at 1 x 10^5 cells/well in 96 well plates and treated for 24 h with LPS (10 ng/ml) and compounds at 10, 30 and 100 µM. MEG-01S were PMA differentiated overnight before compounds were added for a further 24 h at 10, 30 and 100 µM. Cell viability was measured by MTT (Sigma-Aldrich) assay as described previously (Irvine, FASEB J, 2006).

MEG-01S = MEG-01S cell viability by MTT assay; type: cell-based, human; settings: 24 h treatment, 0-100 µM (Figure 3B)
Method: as §1
as §2, with “MEG-01S were PMA differentiated overnight before compounds were added for a further 24 h at 10, 30 and 100 µM.” left out
The effect of the compounds on MEG-01S cell viability was measured by MTT assay after 24 h treatment across the concentration range 0 - 100 µM of compounds (Figure 3B). […]

[2] = Rat pharmacokinetics, plasma concentration by LC-MS/MS after oral dose; type: in vivo, Sprague Dawley rats
Method: (§3) Male adult Sprague Dawley rates (~165g) received a single oral bolus dose of 40mg/kg of compound 3 in a 0.5% methylcellulose/0.1% Tween80 by oral gavage. Rats were sacrificed when collecting blood and spleen samples just prior to dosing and at 0.5 hours, 2h, 8h and 24h (n=3 rats per time point), and the plasma concentration of compound 3 and the spleen PGD2 concentration was measured at each time point.
Blood samples were removed and kept cold at approximately 4°C immediately after collection to minimize degradation and centrifuged as soon as possible at approximately 4000 x g for 10 min. The plasma was transferred to a clean, pre-labelled polypropylene tube and frozen. Samples were stored at -20°C as soon as possible after collection to minimise degradation of the test item.
Plasma concentrations of 3 were determined using a screening LC-ms/ms method developed using the following parameters:
Samples were analysed alongside plasma standards. Concentration data were determined by back calculation from standard curve.

spleen PGD2 = test: Rat target modulation assay, spleen PGD2 by LC-MS/MS; type: in vivo, Sprague Dawley rats; settings: 8 hour time point, 40mg/kg oral
Method: as §3
Spleens were excised, weighed and snap frozen in a dry ice/ethanol bath. Tissues were stored at -80°C until analysis. […] Samples were centrifuged at 2500 rpm for 5 min at 4°C. The resultant supernatant was diluted and the measurement of PGD2 was determined by solid-phase extraction (SPE) using cationic solid-phase extraction cartridges. The SPE eluent was assayed using a screening LC-MS/MS method against aqueous PGD2 standards, using the following LC-MS/MS parameters: […]

Q: Which “concentration above which PGE2, 6-keto PGF1α and TXB2 inhibition was observed” value [1] does the source give for `NC(=O)[C@H](Cc1ccccc1)NC(=O)c1ccc(-c2cccs2)nc1` [Compound 3, N-(1-amino-1-oxo-3-phenylpropan-2-yl)-6-(thiophen-2-yl)-nicotinamide] here?
A: The value was “above 10 µM”.

Q: What about the “differential effect in inhibition of PGD2 versus PGE2, 6-keto PGF1α or TXB2 (selectivity)” value ([1]; 0-100 µM) of the same compound?
A: Its value is “striking selectivity”.

Q: What about the BMM viability (BMM) of the same compound?
A: The BMM viability was “did not affect BMM viability”.

Q: What about the MEG-01S cell viability (MEG-01S) of the same compound?
A: Its MEG-01S cell viability is “little effect”.

Q: What about the “Concentration” value ([2]; individual rat, 0.5 h after 40mg/kg oral gavage) of the same compound?
A: Its value is 263 ng/mL and 218 ng/mL.

Q: What about the “Concentration” value ([2]; individual rat, 2 h after 40mg/kg oral gavage) of the same compound?
A: The value was 73.5 ng/mL and 107 ng/mL.

Q: And the “Concentration” value ([2]; individual rat, 8 h after 40mg/kg oral gavage)?
A: The value was 17.3 ng/mL and 63.9 ng/mL and 51.8 ng/mL.

Q: And the “Concentration (ng/mL)” value ([2]; individual rat, 24 h after 40mg/kg oral gavage)?
A: The value was “BLOQ^2”.

Q: And the concentration at 0.5 h ([2]; male, Sprague Dawley, rat, plasma, oral, 40 mg/kg, 0.5 h after 40mg/kg oral gavage, N 3, read-out: Mean (± sem) Concentration)?
A: Its concentration at 0.5 h is 219 ± 24.8 ng/mL.

Q: What about the concentration at 2 h ([2]; male, Sprague Dawley, rat, plasma, oral, 40 mg/kg, 2 h after 40mg/kg oral gavage, N 3, read-out: Mean (± sem) Concentration) of the same compound?
A: The concentration at 2 h was 91.8 ± 9.79 ng/mL.

Q: And the concentration at 8 h ([2]; male, Sprague Dawley, rat, plasma, oral, 40 mg/kg, 8 h after 40mg/kg oral gavage, N 3, read-out: Mean (± sem) Concentration)?
A: Its concentration at 8 h is 44.3 ± 14 ng/mL.

Q: And the concentration at 24 h ([2]; male, Sprague Dawley, rat, plasma, oral, 40 mg/kg, 24 h after 40mg/kg oral gavage, N 3, BLOQ treated as 0.5 ng/mL, read-out: Mean (± sem) Concentration)?
A: The concentration at 24 h was 0.677 ± 0.177 ng/mL.

Q: What about the concentration at 0.5 h ([2]; male, Sprague Dawley, rat, plasma, oral, 40 mg/kg, individual rat, 0.5 h after 40mg/kg oral gavage, read-out: Concentration) of the same compound?
A: The concentration at 0.5 h was 177 ng/mL.

Q: And the concentration at 2 h ([2]; male, Sprague Dawley, rat, plasma, oral, 40 mg/kg, individual rat, 2 h after 40mg/kg oral gavage, read-out: Concentration)?
A: Its concentration at 2 h is 94.8 ng/mL.

Q: What about the concentration at 24 h ([2]; male, Sprague Dawley, rat, plasma, oral, 40 mg/kg, individual rat, 24 h after 40mg/kg oral gavage, read-out: Concentration) of the same compound?
A: The concentration at 24 h was 1.03 ng/mL.

Q: And the oral bioavailability ([2]; rat, 40mg/kg oral gavage)?
A: The oral bioavailability was “orally bioavailable”.

Q: And the “presence in the serum” value ([2]; rat, 8 hours post delivery, 40mg/kg oral)?
A: The value was “present”.

Q: What about the “reduction in PGD2 activity” value (spleen PGD2) of the same compound?
A: The value was 20%.
